Literature values in patent US20220016058A1, “PHARMACEUTICAL COMPOSITION CONTAINING TAMSULOSIN HYDROCHLORIDE WITH EXCELLENT ACID RESISTANCE AND PREPARATION METHOD THEREFOR” (HANMI PHARM. CO., LTD., priority 2018, published 2022).
Where a name gives a salt, the structure may show the parent alone.

In the case of `CCOc1ccccc1OCCN[C@H](C)Cc1ccc(OC)c(S(N)(=O)=O)c1` [tamsulosin hydrochloride, Tamsulosin hydrochloride], the Solubility in water is listed as “dissolving a little in water”.
